Data from ChEMBL document CHEMBL4418495, “Entpd5 inhibitors” (2012).
The source made the active and inactive calls. How the calls were made is not given here.

Tests used:
[1] = molecular target: T1, Nucleoside diphosphate phosphatase ENTPD5 (Homo sapiens) (UniProt O75356); experiment: Inhibition of human recombinant ENTPD5 expressed in insect cells assessed as reduction in UDP hydrolysis up to 10 uM incubated for 1 hr in presence of UMP, GTP and ATP by Escherichia coli UMP kinase pyrH catalyzed UMP phosphorylation coupled luciferase assay
T1 sequence (whole entry): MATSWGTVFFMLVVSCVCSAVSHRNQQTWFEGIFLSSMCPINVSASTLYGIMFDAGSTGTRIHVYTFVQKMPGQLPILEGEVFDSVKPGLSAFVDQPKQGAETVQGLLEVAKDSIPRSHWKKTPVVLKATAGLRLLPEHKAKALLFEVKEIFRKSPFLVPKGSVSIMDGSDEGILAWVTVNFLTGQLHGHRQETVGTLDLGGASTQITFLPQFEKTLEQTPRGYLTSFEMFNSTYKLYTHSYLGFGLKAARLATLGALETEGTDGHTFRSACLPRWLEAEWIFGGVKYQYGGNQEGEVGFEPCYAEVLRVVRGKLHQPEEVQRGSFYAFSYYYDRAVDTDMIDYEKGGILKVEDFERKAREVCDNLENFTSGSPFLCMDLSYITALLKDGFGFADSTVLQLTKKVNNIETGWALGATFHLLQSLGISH

[2] = molecular target: T1, Nucleoside diphosphate phosphatase ENTPD5 (Homo sapiens); experiment: Inhibition of human recombinant ENTPD5 expressed in insect cells assessed as reduction in UDP hydrolysis at 1 uM incubated for 1 hr in presence of UMP, GTP and ATP by Escherichia coli UMP kinase pyrH catalyzed UMP phosphorylation coupled luciferase assay
[3] = molecular target: T2, Uridylate kinase (Escherichia coli (strain K12)) (UniProt P0A7E9); experiment: Inhibition of recombinant Escherichia coli UMP kinase pyrH catalyzed UMP phosphorylation in presence of GTP and ATP incubated for 1 hr by luminescence based assay
T2 sequence (whole entry): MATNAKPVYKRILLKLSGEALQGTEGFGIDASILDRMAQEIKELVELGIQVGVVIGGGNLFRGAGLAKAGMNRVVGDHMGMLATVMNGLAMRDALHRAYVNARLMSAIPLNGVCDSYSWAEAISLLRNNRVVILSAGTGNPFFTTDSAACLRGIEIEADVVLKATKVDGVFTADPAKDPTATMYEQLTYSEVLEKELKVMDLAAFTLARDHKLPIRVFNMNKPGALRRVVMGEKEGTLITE

[4] = molecular target: T1, Nucleoside diphosphate phosphatase ENTPD5 (Homo sapiens); experiment: Inhibition of human recombinant ENTPD5 expressed in insect cells assessed as reduction in reduction in UDP hydrolysis by measuring inorganic phosphate release incubated for 1 hr by malachite green based assay

| Compound | inhibition [1] | inhibition [2] | inhibition [3] | inhibition [4] |
| --- | --- | --- | --- | --- |
| O=C1C=CC(=O)c2c1ccc1c2ccc2ccccc21 | Dose-dependent effect | Active | inactive | Active |
| Cc1ccc(-c2cc(C(F)(F)F)c3c(N)c(C(=O)c4ccc5c(c4)OCO5)sc3c2)s1 | Dose-dependent effect | Active | inactive | Active |
| O=C1NC(=S)N(c2ccc(Cl)cc2)C(=O)/C1=C\c1ccc(-c2ccccc2C(=O)O)o1 | Dose-dependent effect | Active | inactive | Active |
| O=S(=O)(c1ccc2ccccc2c1)N(CCc1csc2nc(-c3ccc4ccccc4c3)cn12)Cc1ccco1 | Dose-dependent effect | Active | inactive | Active |
| O=C1NC(=S)N(c2ccccc2F)C(=O)/C1=C/c1cccn1-c1ccc(Cl)cc1 | Dose-dependent effect | Active | inactive | Active |
| CCC(C)(C)C1CCc2c(sc(NC(=O)c3ccoc3C)c2C(N)=O)C1 (stereo unspecified) | Dose-dependent effect | Active | inactive | Active |
| COc1ccc(-n2cccc2/C=C2\C(=O)NC(=S)N(c3ccc(Br)cc3)C2=O)cc1 | Dose-dependent effect | Active | inactive | Active |
| O=C1C=C/C(=C\NNc2nc(-c3ccccc3)c(CC(=O)O)s2)C(O)=C1 | Dose-dependent effect | Active | inactive | Active |
| COc1ccc(C(c2cc(C(C)(C)C)c(O)c(C(C)(C)C)c2)N2CCOCC2)cc1 (stereo unspecified) | Dose-dependent effect | Active | inactive | Active |
| CC1=NN(c2ccc(S(N)(=O)=O)cc2)C(=O)/C1=C/c1ccc(-c2ccc(C)cc2[N+](=O)[O-])o1 | Dose-dependent effect | Active | inactive | Active |
| C=CCN(CC(=O)Nc1cc(C)on1)C(=O)CCCC | Dose-dependent effect | Active | inactive | Active |
| O=C(NCCNc1ccc([N+](=O)[O-])cc1)c1ccc(CSc2nnnn2-c2ccccc2)cc1 | Dose-dependent effect | Active | inactive | Active |
| O=S(=O)(c1cccc(C(F)(F)F)c1)N(CCc1csc2nc(-c3ccc4ccccc4c3)cn12)Cc1ccco1 | Dose-dependent effect | Active | inactive | Active |
| Cc1ccc(NC2=NC(=O)/C(=C/c3ccc(-c4ccc(C(=O)O)cc4)o3)S2)cc1Cl | Dose-dependent effect | Active | inactive | Active |
| COc1cccc(/C=c2/sc3n(c2=O)C(c2cccs2)C2=C(N=3)c3ccccc3CC2)c1O (stereo unspecified) | Dose-dependent effect | Active | inactive | Active |
| N#CC1=C(N)n2c(s/c(=C\c3cc(Br)ccc3O)c2=O)=C(C#N)C1c1cc(Br)ccc1O (stereo unspecified) | Dose-dependent effect | Active | inactive | Active |
| Cc1ccc(-c2ccc(C=C3C(=O)NC(=O)NC3=O)o2)c(Br)c1 | Dose-dependent effect | Active | inactive | Active |
| O=C(Nc1ccc2c(c1)S(=O)(=O)c1cc(NC(=O)c3cccs3)ccc1-2)c1cccs1 | Dose-dependent effect | Active | inactive | Active |
| S=C(Nc1ccccc1)Nc1ccc2nc(-c3ccco3)c(-c3ccco3)nc2c1 | Dose-dependent effect | Active | inactive | Active |
| COc1cccc(NC(=S)Nc2ccc3nc(-c4ccco4)c(-c4ccco4)nc3c2)c1 | Dose-dependent effect | Active | inactive | Active |

| Compound | inhibition [1] | inhibition [2] | inhibition [3] | inhibition [4] |
| --- | --- | --- | --- | --- |
| N#Cc1ccccc1COc1ccc(/C=C2/SC(=S)NC2=O)cc1Br | Dose-dependent effect | Active | inactive | Active |
| O=C1/C(=C/c2ccc(-c3ccc(Cl)cc3)o2)SC(=S)N1Cc1ccco1 | Dose-dependent effect | Active | inactive | Active |
| N#CC1=C(N)C(C#N)(C#N)C(c2ccc(OCc3ccc(Cl)cc3)c([N+](=O)[O-])c2)C2CCCC=C12 (stereo unspecified) | Dose-dependent effect | Active | inactive | Active |
| C=CCN(CC(=O)N(Cc1ccc2c(c1)OCO2)Cc1coc2ccc(Cl)cc2c1=O)C(=O)c1cccc2ccccc12 | Dose-dependent effect | Active | inactive | Active |
| O=C1NC(=S)NC(=O)C1=Cc1cn(-c2ccccc2)nc1-c1ccccc1 | Dose-dependent effect | Active | inactive | Active |
| O=C(Nc1nonc1NC(=O)c1sc2cc(Cl)ccc2c1Cl)c1sc2cc(Cl)ccc2c1Cl | Dose-dependent effect | Active | inactive | Active |
| O=C1C=CC(=O)c2c1c(-c1ccccc1)nn2-c1ccccc1 | Dose-dependent effect | Active | inactive | Active |
| CCCCCCCCCCCCCCCC[N+](C)(C)CCN(Cc1ccc(OC)cc1)c1ncccn1 | Dose-dependent effect | Active | inactive | Active |
| O=C(O)c1ccc(-c2ccc(/C=C3\SC(=S)N(c4ccc([N+](=O)[O-])cc4)C3=O)o2)cc1 | Dose-dependent effect | Active | inactive | Active |
| O=C1N=C2C=CC(I)=CC2C1NNc1cccc2cccnc12 (stereo unspecified) | Dose-dependent effect | Active | inactive | Active |
| O=C(NC12CC3CC(CC(C3)C1)C2)N1CCN(C(=O)c2ccco2)CC1 | Dose-dependent effect | Active | inactive | Active |
| O=C(Nc1c[nH]c(=O)[nH]c1=O)c1cccc(N2C(=O)c3ccc([N+](=O)[O-])cc3C2=O)c1 | Dose-dependent effect | Active | inactive | Active |
| O=S(=O)(Nc1cc(-c2c(O)ccc3ccccc23)c(O)c2ccccc12)c1ccc(F)cc1 | Dose-dependent effect | Active | inactive | Active |
| O=C1/C(=C/c2ccc(-c3ccc(Br)cc3)o2)SC(=S)N1Cc1ccco1 | Dose-dependent effect | Active | inactive | Active |
| C#CCn1cc(/C=C2\C(=O)NC(=S)N(c3ccc(Br)cc3)C2=O)c2ccccc21 | Dose-dependent effect | Active | inactive | Active |
| Cc1ccnc(NC(c2ccc3cccnc3c2O)c2sccc2C)c1 (stereo unspecified) | Dose-dependent effect | Active | inactive | Active |
| CCN(CC)c1ccc(C(Nc2ccccn2)c2ccc3cccnc3c2O)cc1 (stereo unspecified) | Dose-dependent effect | Active | inactive | Active |
| O=C(NC(=S)Nc1cc(Cl)c(O)c(Cl)c1)c1cc2ccccc2o1 | Dose-dependent effect | Active | inactive | Active |
| COc1ccc(OC)c(-c2cn3c(CCN(Cc4ccco4)S(=O)(=O)c4ccc5ccccc5c4)csc3n2)c1 | Dose-dependent effect | Active | inactive | Active |
